Source: patent US20100021895A1, “Vectors for Inducing Homozygous Mutations and Methods of Using Same” (priority 2006, published 2010)

Test system: mouse embryonic stem cell clones, each containing a neomycin resistance gene (Neo) inserted by the GTR1.3 gene trap retrovirus
Assay: Carcinogen-induced LOH: frequency of colony formation in 2.0 mg/ml G418
Type: cell-based
Conditions: for enhanced colony formation, average: at least 25 entrapment lines
Procedure: Carcinogen-induced LOH was measured in a panel of 53 mouse embryonic stem cell clones, each containing a neomycin resistance gene (Neo) inserted into a different cellular gene (FIG. 9) by the GTR1.3 gene trap retrovirus. Gene entrapment by GTR1.3 involves selection for inserted Neo sequences that can splice to the 3′ ends of cellular genes (Lin et al.,). The disrupted genes were identified by sequencing Neo-gene fusion transcripts and were localized on the mouse genome. Previous studies have shown that cells homozygous for GTR1.3-induced mutations can be selected from heterozygous cells simply by selecting for resistance to higher concentrations of G418, a method first shown to select for homozygous mutations induced by gene targeting (15). Mitotic recombination appears to be the preferred mechanism of spontaneous LOH involving Neo genes inserted in ES cells (17) and LOH involving other genes and cell types in vivo (12, 13). LOH doubles the number of Neo genes per cell and thus allows moderately resistant cells to acquire resistance to higher concentrations of G418. The frequencies of spontaneous LOH measured at the 53 different sites ranged from 1.3×10^−5 to 1.2×10^−4 (Table 3), similar to those reported for other inserted neomycin resistance genes (15, 17) in ES cells and for loci such as TK and APRT in other cell types (12, 13).
A variety of chemical agents were tested for their ability to enhance the frequencies at which mutant cells survive in 2.0 mg/ml G418. Methyl-nitrosurea (MNU) is an alkylating agent that produces a variety of mono-methylated DNA adducts, hydroxyurea (HU) stalls DNA replication complexes, doxorubicin interferes with DNA synthesis, methothrexate is a competitive inhibitor of dihydrofolate reductase but is not genotoxic, diepoxybutane and mitomycin C induce inter-strand DNA crosslinks, UV irradiation causes intra- and inter-strand pyrimidine dimmers, and ethidium bromide intercalates between DNA strands to damage DNA (For additional information about these agents see http://toxnet.nlm.nih.gov and http://lisntweb.swan.ac.uk/cmgt/index.htm). […] The fold-increase for MNU and HU ranged from 39-123 and 18-68, respectively (Table 3). The optimal concentrations of each agent to stimulate colony formation with minimal toxicity (<5% loss of cell viability) were determined in advance (FIG. 13). […] Each of these agents was tested two or more times on at least 25 entrapment lines.
Serially diluted cells were plated onto 150 mm plates containing drug-free media and allowed to attach overnight. Unattached cells were removed and media containing the indicated concentrations of methyl-nitrosourea, hydroxyurea, ethidium bromide, doxorubicin, methotrexate, diepoxybutane, or mitomycin C was put onto cells for 4 hours (or cells were exposed to ultraviolet light in the absence of media and allowed to recover in drug-free media for 4 hours). Cells were then rinsed twice with drug-free media and selection media containing 0.0, 0.3, or 2.0 mg/ml G418 was put onto cells. After 12 days of selection, the number of colonies surviving was counted and the frequency of colony formation was determined by dividing the number of colonies obtained from 2.0 mg/ml G418 selection to that obtained from parallel experiments with 0.3 mg/ml G418 selection. TK gene loss was assessed following selection in media containing 2 μg/ml gancyclovir.
Table 3. The frequency of colony formation in high concentrations of G418. The frequency of colony formation is listed for all 53 clones examined. Frequency was determined by dividing the number of colonies surviving 2.0 mg/ml G418 selection to the number surviving parallel experiments with 0.3 mg/ml G418 selection, and is the average of at least 3 independent experiments for each clone. Standard deviations, which ranged from 5 to 70% of the mean values, have been omitted for clarity. […]

CC[n+]1c(-c2ccccc2)c2cc(N)ccc2c2ccc(N)cc21 [EtBr, ethidium bromide]
effect on colony formation in high G418 (ethidium bromide 25 μg/ml): no significant effect

C1OC1C1CO1 (stereo not drawn) [diepoxybutane]
survival of mutant ES cells in media containing 2.0 mg/ml G418 (ES cells heterozygous for Xrcc5 entrapment mutation, 4 hours with 0.5 mM methyl-nitrosourea, 0.25 mM hydroxyurea or 100 ng/ml diepoxybutane): enhances the survival | enhanced colony formation, average (diepoxybutane 100 ng/mL): 16 fold

COc1cccc2c1C(=O)c1c(O)c3c(c(O)c1C2=O)C[C@@](O)(C(=O)CO)C[C@@H]3O[C@H]1C[C@H](N)[C@H](O)[C@H](C)O1 [doxorubicin]
enhanced colony formation, average (doxorubicin 0.1 μM): 15 fold

CN(Cc1cnc2nc(N)nc(N)c2n1)c1ccc(C(=O)N[C@@H](CCC(=O)O)C(=O)O)cc1 [methothrexate]
effect on colony formation in high G418 (methothrexate 50 μM): no significant effect

CO[C@@]12[C@H](COC(N)=O)C3=C(C(=O)C(C)=C(N)C3=O)N1C[C@@H]1N[C@@H]12 [mitomycin C]
enhanced colony formation, average (mitomycin C 50 ng/mL): 14 fold
